Patent US20170298051A1, “ACTIVATOR OF ADIPONECTIN RECEPTOR” (THE UNIVERSITY OF TOKYO, priority 2013, published 2017)
pKd: −log10 of the molar value.

Columns and labels:
AdipoR1 = target: T1, AdipoR1 (Homo sapiens, UniProt Q96A54); experiment: Surface plasmon resonance, affinity for AdipoR1; assay type: binding; design: made in house; settings: SPR
T1 sequence (Q96A54 1-375): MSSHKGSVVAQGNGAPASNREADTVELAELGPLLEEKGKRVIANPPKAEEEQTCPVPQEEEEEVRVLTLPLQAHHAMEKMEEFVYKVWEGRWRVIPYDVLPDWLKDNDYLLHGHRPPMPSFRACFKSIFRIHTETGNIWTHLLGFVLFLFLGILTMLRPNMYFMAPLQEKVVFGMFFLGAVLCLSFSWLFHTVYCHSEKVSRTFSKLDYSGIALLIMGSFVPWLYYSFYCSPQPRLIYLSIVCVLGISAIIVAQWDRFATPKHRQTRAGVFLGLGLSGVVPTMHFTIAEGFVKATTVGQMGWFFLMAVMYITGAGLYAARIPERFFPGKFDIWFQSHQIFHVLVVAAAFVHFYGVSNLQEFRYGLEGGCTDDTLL
Method: Surface plasmon resonance measurements were performed by a BIAcore X100 system (GE Healthcare) and sensor chip SA (GE Healthcare). Human AdipoR1 and AdipoR2 were expressed with the baculovirus system, and purified to homogeneity. The AdipoR1 and AdipoR2 samples were then reconstituted into egg-phosphatidylcholine liposomes containing biotinyl phosphatidylethanolamine (Avanti), as previously reported^a. Mouse full-length adiponectin was generated as previously described^b,c,d,e. AdipoR1 and AdipoR2 were immobilized onto a sensor chip SA to levels of 2,500-3,000 response units (RU) using standard immobilization protocols (GE Healthcare).
Experiments were performed at 25° C. using AdipoRon (0.49-31.25 μM) and adiponectin (1.5 ng-3.75 μg) and using electrophoresis buffer (20 mM Hepes (pH 7.4), 200 mM NaCl, 10% glycerol, […] surfactant P20). Biacore X100 Evaluation Software was used to determine the equilibrium dissociation constant (KD) of the compound or proteins.

[1] = Measurement of plasma concentrations of AdipoRon; assay type: in vivo, C57BL/6 mice; settings: C57BL/6, mouse, C57B6 WT mice, oral 50 mg/kg, read-out: maximal concentration (Cmax) in plasma
Method: We measured the plasma concentrations of AdipoRon by HPLC and TSQ Quantum Ultra (ThermoFisher) in C57BL/6 mice orally administered with 50 mg of AdipoRon per kg bodyweight. For quantitative analyses, 20 μl of plasma was mixed with acetonitrile. The mixture was mixed vigorously for 30 sec and then centrifuged at 10,000 rpm for 3 min at 4° C. An aliquot of the supernatant was injected into the quantitative LC/MS system. Quantitative analyses were performed using an Accela HPLC system (ThermoFisher). The liquid chromatographic separations were carried out by using syncronis C18, 150×2.1 mm, 3 μm. Column temperature was held at 40° C. The flow rate was 0.2 ml/min. Elution solvent A was 0.1% formic acid in water and solvent B was 0.1% formic acid in methanol. The chromatographic conditions were as follows: 0-5 min 45% A/55% B; 5-6.5 min 5% A/95%B, 6.5-10 min 45%A/55%B. A typical injection volume was 3 μl. Quantitative analyses were performed using a TSQ Quantum Ultra triple-stage quadrupole mass spectrometer. Electro-spray ionization in positive ion mode (ESI+) was used for ionization and selective reaction monitoring (SRM) mode was chosen for detection. The optimized precursor ions pairs were m/z 429.251→91.057 for AdipoRon. […]

Lepr−/− (db/db) mice = experiment: Anti-diabetic effects in db/db mice; assay type: in vivo
Method: Mice were 6-10 week of age at the time of the experiment. They were housed in cages and maintained on a 12 hr light-dark cycle.
Male Lepr^−/− (aged 6-10 week) were purchased from Jackson Laboratory. When the mice in the same genotype received different treatments, they were randomly assigned to treatment groups.
Plasma glucose levels were determined by using a glucose B-test (Wako Pure Chemical Industries). Plasma insulin was measured with an insulin immunoassay (Shibayagi). Plasma NEFAs (Wako Pure Chemical Industries) were assayed by enzymatic methods.
The oral glucose tolerance test (OGTT) and insulin tolerance test (ITT) were conducted as previously described^a,b with slight modifications. The areas of the glucose and insulin curves were calculated by multiplying the cumulative mean height of the glucose values (1 mg/ml=1 cm) and insulin values (1 ng/ml=1 cm), respectively, by time (60 min=1 cm)^c,a. The insulin resistance index was calculated from the product of the areas of glucose and insulin×10^−2 in the glucose tolerance test. The results are expressed as the percentage of the value respect to control littermates.

[2] = tested on: white adipose tissue (WAT); experiment: White adipose tissue (WAT): inflammation and macrophage markers in mice fed a HF diet; assay type: in vivo
Method: (§1) Real-time PCR was carried out according to the method described previously^a,b,c. Total RNA was prepared from cells or tissues with Trizol (Invitrogen) according to the manufacturer's instructions. We used a real-time PCR method to quantify the mRNAs^19, with slight modifications.
(§2) Skeletal muscle homogenates were extracted, and tissue triglyceride content was determined as described previously^a-c, with some modifications. To investigate whether oxidative stress was increased, we measured lipid peroxidation, a marker of oxidative injury, as represented by plasma thiobarbituric acid reactive substance (TBARS) as described previously^4. Briefly, tissue samples were homogenized in a buffer solution containing 50 mM Tris-HCl (pH 7.4) and 1.15% KCl, and then centrifuged. The supernatant was used for the assay. The levels of lipid peroxidation in tissue homogenate and plasma were measured in terms of the amount of TBARS using the LPO test (Wako Pure Chemical Industries).

rhodopsin receptor = experiment: Surface plasmon resonance, rhodopsin receptor control; assay type: binding; settings: SPR
db/db mice = experiment: TG content, oxidative stress and inflammation in insulin target tissues in db/db mice; assay type: in vivo
Method: Mitochondrial content assays were carried out as described previously^a,b, with slight modifications. For quantification of mitochondrial content, we used mtDNAas previously described^c.
as §1, §2

- Rmax (AdipoR1): 14.6 RU
- pKd (AdipoR1; 25° C., read-out: equilibrium dissociation constant (KD)): 5.74
- Cmax [1]: 11.8 µM
Compound: O=C(COc1ccc(C(=O)c2ccccc2)cc1)NC1CCN(Cc2ccccc2)CC1 [Compound 73, 2-(4-benzoyl-phenoxy)-N-(1-benzylpiperidin-4-yl)acetamide]
- plasma glucose level (Lepr−/− (db/db) mice; oral 50 mg/kg body weight): decreased plasma glucose level
- glucose intolerance, insulin resistance and dyslipidemia (Lepr−/− (db/db) mice; oral, 2 weeks): significantly ameliorated
- changes of macrophage markers in the WAT ([2]; Adipor1/r2 double-knockout mice): these changes were not observed
- expression levels of genes encoding pro-inflammatory cytokines in the WAT ([2]; Adipor1/r2 double-knockout mice fed with a HF diet): such effect was not observed
- expression levels of genes encoding pro-inflammatory cytokines (Tnf, Il6, Ccl2) in the WAT ([2]; WT mice fed with a HF diet): reduced the expression levels
- levels of macrophage markers such as TBARS and F4/80 (Emr1), M1 marker CD11c (Itgax) in the WAT ([2]; WT mice fed with a HF diet): reduced the levels
- levels of markers for alternatively activated M2 macrophages such as CD206 (Mrc1) in the WAT ([2]; WT mice fed with a HF diet): not affect the levels
- reaction with rhodopsin receptor (control) (rhodopsin receptor): does not react a rhodopsin receptor at all
- TG content in the liver (db/db mice): significantly reduced TG content
- expression levels of genes encoding pro-inflammatory cytokines in the liver (db/db mice): reduced expression levels
- expression levels of genes encoding pro-inflammatory cytokines, macrophage markers, M1 macrophage markers in the WAT (db/db mice): reduced the expression levels
- expression of Pparα and its target genes in the liver (db/db mice): increased the expression
- expressions of Ppargc1a, Pck1 and G6pc in the liver (db/db mice): significantly decreased expressions
- oxidative stress in the liver (db/db mice): significantly reduced
- TG content and TBARS in skeletal muscles (db/db mice; oral): decreased TG content and TBARS
- levels of Acadm and Sod2 in skeletal muscles (db/db mice; oral): significantly increased
- levels of genes involved in mitochondrial biogenesis functions and DNA content in skeletal muscles (db/db mice; oral): significantly increased
